Patent publication US8829007B2 (priority 2009, dated 2014)
Structures can show the parent of a compound that is named as a salt. Where two headings read alike, the source gives them in different places.

Experiments:
[1] = system: influenza A virus (A/PR/8/34); experiment: microbe, parasite or virus in culture; assay type: cell-based
[2] = system: A/PR/8/34 influenza virus; experiment: microbe, parasite or virus in culture; assay type: cell-based
[3] = Influenza A virus, PR/8, MDCK, MDCK cells infected with A/PR/8/34, survival of infected cells, class symbols, read-out: IC50 (mean all)
[4] = Influenza A virus, PR/8, MDCK, MDCK cells infected with A/PR/8/34, replication of influenza virus (viral RNA, bDNA), class symbols, read-out: EC50 (mean all)
[5] = Influenza A virus, PR/8, MDCK, CPE assay, A/PR/8/34 infected MDCK cells, class symbols, read-out: IC50 (mean all)
[6] = Influenza A virus, PR/8, MDCK, bDNA assay, A/PR/8/34 influenza virus replication in MDCK cells, class symbols, read-out: EC50 (mean all)
[7] = Influenza A virus, PR/8, MDCK, mean all, A/PR/8/34 infected MDCK cells, CPE assay, read-out: IC50
[8] = Influenza A virus, PR/8, MDCK, mean all, A/PR/8/34 influenza virus in MDCK cells, bDNA assay, read-out: EC50
[9] = mean all, MDCK cells infected with A/PR/8/34, cell protection (CPE), read-out: IC50
[10] = mean all, bDNA viral RNA in MDCK cells infected with A/PR/8/34, read-out: EC50
[11] = Influenza A virus, PR/8, MDCK, MDCK cells infected with A/PR/8/34, cell protection (CPE), read-out: IC50 (mean all)
[12] = Influenza A virus, PR/8, MDCK, MDCK cells infected with A/PR/8/34, bDNA viral RNA, read-out: EC50 (mean all)

COCC(=O)N[C@@H]1CCCC[C@H]1CNc1nc(-c2c[nH]c3ncc(Cl)cc23)ncc1F (relative stereo) [Compound 556, N-(trans-2-((2-(5-chloro-1H-pyrrolo[2,3-b]pyridin-3-yl)-5-fluoropyrimidin-4-ylamino)methyl)cyclohexyl)-2-methoxyethanamide]
IC50 [1, 3]: > 10 µM
EC50 [2, 4]: < 5 µM

NC(=O)C(O)CN1CCCC(Nc2nc(-c3c[nH]c4ncc(Cl)cc34)ncc2F)C1 [Compound 603, 3-((S)-3-((2-(5-chloro-1H-pyrrolo[2,3-b]pyridin-3-yl)-5-fluoropyrimidin-4-ylamino)piperidin-1-yl)-2-hydroxypropanamide]
IC50 [1, 5]: < 5 µM
EC50 [2, 6]: < 5 µM

CNC(=O)C(C)(C)N1CCC[C@H](Nc2nc(-c3c[nH]c4ncc(Cl)cc34)ncc2F)C1 [Compound 599]
IC50 [1, 5]: < 5 µM
EC50 [2, 6]: < 5 µM

CN(C)C(=O)N1CCCC(Nc2nc(-c3c[nH]c4ncc(Cl)cc34)ncc2F)CC1 (stereo not drawn) [Compound 499, 4-(2-(5-chloro-1H-pyrrolo[2,3-b]pyridin-3-yl)-5-fluoropyrimidin-4-ylamino)-N,N-dimethylazepane-1-carboxamide]
IC50 [1, 3]: < 5 µM
EC50 [2, 4]: < 5 µM

O=C1NCCCC[C@@H]1Nc1nc(-c2c[nH]c3ncc(C(F)(F)F)cc23)ncc1F [Compound 502, (S)-3-(5-fluoro-2-(5-(trifluoromethyl)-1H-pyrrolo[2,3-b]pyridin-3-yl)pyrimidin-4-ylamino)azepan-2-one]
IC50 [1, 3]: < 5 µM
EC50 [2, 4]: < 5 µM

CCN1CCCC[C@H](Nc2nc(-c3c[nH]c4ncc(Cl)cc34)ncc2F)C1=O [Compound 462]
IC50 [1, 7]: 5 to 20 µM
EC50 [2, 8]: < 5 µM

O=C(NC1CCCC(Nc2nc(-c3c[nH]c4ncc(F)cc34)ncc2F)C1)C1CCCCO1 (stereo not drawn) [Compound 704]
IC50 [1, 9]: < 5 µM
EC50 [2, 10]: < 5 µM

O=C(N[C@@H]1CCC[C@H](Nc2nc(-c3c[nH]c4ncc(Cl)cc34)ncc2F)C1)C1CCCOC1 (stereo partly drawn) [Compound 633, N-[(1R,3S)-3-[[2-(5-chloro-1H-pyrrolo[2,3-b]pyridin-3-yl)-5-fluoro-pyrimidin-4-yl]amino]cyclohexyl]tetrahydropyran-3-carboxamide hydrochloride]
IC50 [1, 5]: < 5 µM
EC50 [2, 6]: < 5 µM

O=S(=O)(C1CC1)N1CCOCC1CNc1nc(-c2c[nH]c3ncc(Cl)cc23)ncc1F (stereo not drawn) [Compound 533, 2-(5-chloro-1H-pyrrolo[2,3-b]pyridin-3-yl)-N-((4-(cyclopropylsulfonyl)morpholin-3-yl)methyl)-5-fluoropyrimidin-4-amine]
IC50 [1, 3]: 5 to 20 µM
EC50 [2, 4]: < 5 µM

COCC(O)CN[C@@H]1CCC[C@H](Nc2nc(-c3c[nH]c4ncc(Cl)cc34)ncc2F)C1 (stereo partly drawn) [Compound 610, 1-[[(1R,3S)-3-[[2-(5-chloro-1H-pyrrolo[2,3-b]pyridin-3-yl)-5-fluoro-pyrimidin-4-yl]amino]cyclohexyl]amino]-3-methoxy-propan-2-ol]
IC50 [1, 5]: < 5 µM
EC50 [2, 6]: > 3.3 µM

Fc1cnc(-c2c[nH]c3ncc(Cl)cc23)nc1NC1CCCN(CC2CCOCC2)C1 (stereo not drawn) [Compound 621]
IC50 ([1]; CPE assay, A/PR/8/34 infected MDCK cells, class symbols, read-out: IC50 (mean all)): < 5 µM
EC50 ([2]; bDNA assay, A/PR/8/34 influenza virus replication in MDCK cells, class symbols, read-out: EC50 (mean all)): < 5 µM

(R)—N-((1-(3-bromophenylsulfonyl)piperidin-3-yl)methyl)-2-(5-chloro-1H-pyrrolo[2,3-b]pyridin-3-yl)-5-fluoropyrimidin-4-amine [Compound 88]
IC50 ([1]; read-out: IC50 (mean all)): < 5 µM
EC50 ([2]; read-out: EC50 (mean all)): < 5 µM

COC(=O)NC1CCCC(Nc2nc(-c3c[nH]c4ncc(Cl)cc34)nc(C(C)(C)C)c2F)C1 (stereo not drawn) [Compound 688]
IC50 [1, 9]: < 5 µM
EC50 [2, 10]: < 5 µM

CS(=O)(=O)NC1CCCC(Nc2nc(-c3c[nH]c4ncc(Cl)cc34)ncc2F)C1 (stereo not drawn) [Compound 454, N-[3-[[2-(5-chloro-1H-pyrrolo[2,3-b]pyridin-3-yl)-5-fluoro-pyrimidin-4-yl]amino]cyclohexyl]methanesulfonamide]
IC50 [1, 7]: < 5 µM
EC50 [2, 8]: < 5 µM

CC(C)(C)c1nc(-c2c[nH]c3ncc(Cl)cc23)nc(NC2CCCCC2(C)C(=O)O)c1F (stereo not drawn) [Compound 691]
IC50 [1, 9]: < 5 µM
EC50 [2, 10]: < 5 µM

CCOC(=O)N1CCC[C@@H](CNc2nc(-c3c[nH]c4ncc(Cl)cc34)ncc2F)C1 [Compound 33, (S)-ethyl 3-((2-(5-chloro-1H-pyrrolo[2,3-b]pyridin-3-yl)-5-fluoropyrimidin-4-ylamino)methyl)piperidine-1-carboxylate]
IC50 [1, 11]: < 5 µM
EC50 [2, 12]: < 5 µM

O=C(c1cccs1)N1CCC[C@H](CNc2nc(-c3c[nH]c4ncc(Cl)cc34)ncc2F)C1 [Compound 97, (R)-(3-((2-(5-chloro-1H-pyrrolo[2,3-b]pyridin-3-yl)-5-fluoropyrimidin-4-ylamino)methyl)piperidin-1-yl)(thiophen-2-yl)methanone]
IC50 [1, 11]: < 5 µM
EC50 [2, 12]: < 5 µM

COP(=O)(CN1CCC[C@H](Nc2nc(-c3c[nH]c4ncc(Cl)cc34)ncc2F)C1)OC [Compound 690]
IC50 ([1]; Influenza A virus, PR/8, MDCK, read-out: IC50): < 5 µM
EC50 ([2]; Influenza A virus, PR/8, MDCK): < 5 µM

CNC(=O)[C@@H]1CCCC[C@@H]1Nc1nc(-c2c[nH]c3ncc(Cl)cc23)ncc1F (relative stereo) [Compound 539, Cis-2-(2-(5-chloro-1H-pyrrolo[2,3-b]pyridin-3-yl)-5-fluoropyrimidin-4-ylamino)-N-methylcyclohexanecarboxamide]
IC50 [1, 3]: 5 to 20 µM
EC50 [2, 4]: < 5 µM

N[C@@H]1CCCC[C@H]1CNc1nc(-c2c[nH]c3ncc(Cl)cc23)ncc1F (racemic) [Compound 555, N-((trans-2-aminocyclohexyl)methyl)-2-(5-chloro-1H-pyrrolo[2,3-b]pyridin-3-yl)-5-fluoropyrimidin-4-amine]
IC50 [1, 3]: > 10 µM
EC50 [2, 4]: < 5 µM

NC1CCCC(Nc2nc(-c3c[nH]c4ncc(Cl)cc34)ncc2F)C1 (stereo not drawn) [Compound 540, N-[2-(5-chloro-1H-pyrrolo[5,4-b]pyridin-3-yl)-5-fluoro-pyrimidin-4-yl]cyclohexane-cis-1,3-diamine]
IC50 [1, 3]: < 5 µM
EC50 [2, 4]: < 5 µM

O=S(=O)(c1ccc(F)cc1)N1CCC[C@H](CNc2nc(-c3c[nH]c4ncc(Cl)cc34)ncc2F)C1 [Compound 64, (R)-2-(5-chloro-1H-pyrrolo[2,3-b]pyridin-3-yl)-5-fluoro-N-((1-(4-fluorophenylsulfonyl)piperidin-3-yl)methyl)pyrimidin-4-amine]
IC50 [1, 11]: 5 to 20 µM
EC50 [2, 12]: < 5 µM

O=C(O)[C@@H]1CCCC[C@@H]1Nc1nc(-c2c[nH]c3ncc(Cl)cc23)ncc1F (relative stereo) [Compound 559, Cis-2-(2-(5-chloro-1H-pyrrolo[2,3-b]pyridin-3-yl)-5-fluoropyrimidin-4-ylamino)cyclohexanecarboxylic acid]
IC50 [1, 3]: < 5 µM
EC50 [2, 4]: < 5 µM

CC(C)C(=O)N1CCOCC1CNc1nc(-c2c[nH]c3ncc(Cl)cc23)ncc1F (stereo not drawn) [Compound 529, 1-(3-((2-(5-chloro-1H-pyrrolo[2,3-b]pyridin-3-yl)-5-fluoropyrimidin-4-ylamino)methyl)morpholino)-2-methylpropan-1-one]
IC50 [1, 3]: 5 to 20 µM
EC50 [2, 4]: > 10 µM

O=C(c1cc(F)cc(F)c1)N1CCC[C@H](CNc2nc(-c3c[nH]c4ncc(Cl)cc34)ncc2F)C1 [Compound 86, (R)-(3-((2-(5-chloro-1H-pyrrolo[2,3-b]pyridin-3-yl)-5-fluoropyrimidin-4-ylamino)methyl)piperidin-1-yl)(3,5-difluorophenyl)methanone]
IC50 [1, 11]: < 5 µM
EC50 [2, 12]: < 5 µM

Cc1ccccc1C(=O)N1CCC[C@H](CNc2nc(-c3c[nH]c4ncc(Cl)cc34)ncc2F)C1 [Compound 143, (R)-(3-((2-(5-chloro-1H-pyrrolo[2,3-b]pyridin-3-yl)-5-fluoropyrimidin-4-ylamino)methyl)piperidin-1-yl)(o-tolyl)methanone]
IC50 [1, 11]: < 5 µM
EC50 [2, 12]: < 5 µM

CC(O)CC(=O)N[C@@H]1CCC[C@H](Nc2nc(-c3c[nH]c4ncc(Cl)cc34)ncc2F)C1 (stereo partly drawn) [Compound 640, N-[(1R,3S)-3-[[2-(5-chloro-1H-pyrrolo[2,3-b]pyridin-3-yl)-5-fluoro-pyrimidin-4-yl]amino]cyclohexyl]-3-hydroxy-butanamide hydrochloride]
IC50 [1, 5]: < 5 µM
EC50 [2, 6]: < 5 µM

CCNC(=O)OC1CCCC(Nc2nc(-c3c[nH]c4ncc(Cl)cc34)ncc2F)C1 (stereo not drawn) [Compound 608, 3-((2-(5-chloro-1H-pyrrolo[2,3-b]pyridin-3-yl)-5-fluoropyrimidin-4-ylamino)cyclohexyl ethylcarbamate]
IC50 ([1]; Influenza A virus, PR/8, MDCK, read-out: IC50 (mean all)): < 5 µM
EC50 ([2]; Influenza A virus, PR/8, MDCK, read-out: EC50 (mean all)): < 5 µM

CC(C)NC(=O)N1CCOCC1CNc1nc(-c2c[nH]c3ncc(Cl)cc23)ncc1F (stereo not drawn) [Compound 536, 3-((2-(5-chloro-1H-pyrrolo[2,3-b]pyridin-3-yl)-5-fluoropyrimidin-4-ylamino)methyl)-N-isopropylmorpholine-4-carboxamide]
IC50 [1, 3]: 5 to 20 µM
EC50 [2, 4]: > 10 µM

CC(=O)N1CCC[C@@H](CNc2nc(-c3c[nH]c4ncc(Cl)cc34)ncc2F)C1 [Compound 37, (S)-1-(3-((2-(5-chloro-1H-pyrrolo[2,3-b]pyridin-3-yl)-5-fluoropyrimidin-4-ylamino)methyl)piperidin-1-yl)ethanone]
IC50 [1, 11]: < 5 µM
EC50 [2, 12]: < 5 µM
